From patent US5726189A, “Method for imaging nicotinic acetylcholinergic receptors in the brain using radiolabeled pyridyl-7-azabicyclo [2.2.1]heptanes” (priority 1996, dated 1998) come the findings set out here.

This data set deals with nAChRs in mouse brain. Kind of data set: regional distribution of [18F]FPH in mouse brain after tail vein injection. It counts as in vivo. On the procedure: The utility of [^18 F] FPH as an agent to label, in vivo, nAChRs in mouse brain was tested. Mice received 0.4 μCi of [^18 F]FPH (sp. act >2000 mCi/μmol) by tail vein injection. The regional distribution of the tracer in brain was assessed in the absence and presence of unlabeled epibatidine. […] In in vitro assays, the Ki for unlabeled FPH against nAChRs labeled with [^3 H] epibatidine was approximately 3 pM. […] FPH would be an excellent ligand for imaging nAChRs in living human brain.

Where [1] appears, read: 30 minutes post injection, tail vein, 0.4 μCi.

On to `[18F]c1ccc(C2CC3CCC2N3)cn1` (racemic) [[^18 F]FPH, (±)-exo-2-(2-[^18 F]fluoro-5-pyridyl)-7-azabicyclo[2.2.1]heptane], for which, under setting [1], the uptake in cerebellum is < 3 % ID/g, the uptake in cortex turned out to be 6.2 % ID/g, the uptake in hippocampus worked out at 6 % ID/g and the “uptake in superior colliculus” value is listed as 10 % ID/g. In addition, the uptake in thalamus under setting [1] is 11 % ID/g. Further, the “binding in all regions after pretreatment with unlabeled epibatidine” value (pretreatment with unlabeled epibatidine 20 μg/kg) was ~ 3 % ID/g.
